# Data as given in patent US7332507B2, “3-substituted quinuclidines and their use” (Neurosearch A/S, priority 2002, dated 2008).
# Where a name gives a salt, the structure may show the parent alone.
# Molecular target: T1, α7-subtype of nicotinic receptors (Rattus norvegicus, UniProt Q05941)
# T1 construct: Cerebral cortices from male Wistar rats (150-250 g) are homogenised; from tissue; host or cells: rat cerebral cortex membrane homogenate (male Wistar rats)
# Experiment: In vitro inhibition of 3H-α-bungarotoxine binding in rat brain
# Details: rat cerebral cortex homogenate; 3H-α-bungarotoxine 2 nM; 2 hours at 37° C.
# T1 sequence (Q05941 23-502): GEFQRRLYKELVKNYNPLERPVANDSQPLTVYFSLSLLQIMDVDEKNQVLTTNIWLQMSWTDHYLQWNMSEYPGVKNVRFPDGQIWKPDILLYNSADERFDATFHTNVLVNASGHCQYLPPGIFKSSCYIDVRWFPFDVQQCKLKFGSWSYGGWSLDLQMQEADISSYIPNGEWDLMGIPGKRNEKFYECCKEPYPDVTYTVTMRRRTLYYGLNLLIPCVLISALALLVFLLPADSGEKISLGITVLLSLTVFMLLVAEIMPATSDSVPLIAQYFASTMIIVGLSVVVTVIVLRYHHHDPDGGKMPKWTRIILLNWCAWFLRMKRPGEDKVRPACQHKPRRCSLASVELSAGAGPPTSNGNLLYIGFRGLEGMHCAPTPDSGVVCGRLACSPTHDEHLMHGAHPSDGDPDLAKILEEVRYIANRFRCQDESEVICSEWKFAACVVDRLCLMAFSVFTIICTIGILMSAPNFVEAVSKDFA
compound,measurement,value
"c1ccc2c(c1)ncn2C1CN2CCC1CC2 (racemic) [Compound A1, (±)-3-(1-Benzimidazolyl)-quinuclidine fumaric acid salt]",IC50,400 nM
